Data reported in patent US8937091B2 (Japan Science and Technology Agency, priority 2009, dated 2015).

How the values were obtained:
[1] = tested on: SOCE (store operated calcium entry) in CHO cells; test: Assay of SOCE (store operated calcium entry)-inhibiting action; format: cell-based, Chinese hamster; conditions: CHO cells, thapsigargin; for inhibition at 10 µM / inhibition at 30 µM / inhibition at 100 µM: Cricetulus griseus, CHO, read-out: SOCE level (percentage of inhibition)
Procedure, shortened: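 CHO cells in calcium-free BSS received compound, then 1 μM thapsigargin 2 min later to deplete stores; after 9 min, 2 mM calcium chloride (final) added. Percent inhibition of the rise in intracellular calcium determined at various compound concentrations.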

[2] = tested on: IICR (IP3 induced calcium release) in CHO cells; test: Assay of IICR (IP3 induced calcium release)-inhibiting action; format: cell-based, Chinese hamster; conditions: CHO cells, 10 μM ATP; for inhibition at 10 µM / inhibition at 30 µM / inhibition at 100 µM: Cricetulus griseus, CHO, read-out: IICR level (percentage of inhibition)
Procedure, shortened: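 CHO cell medium replaced with calcium-containing BSS; compound added 1 min later, then 10 μM ATP after a further 2 min. Percent inhibition of the ATP-evoked rise in intracellular calcium determined at each compound concentration.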

SMILES | inhibition at 10 µM ([1]; test compound 10 μmol) [%] | inhibition at 30 µM ([1]; test compound 30 μmol) [%] | inhibition at 100 µM ([1]; test compound 100 μmol) [%] | inhibition at 10 µM ([2]; test compound 10 μmol) [%] | inhibition at 30 µM ([2]; test compound 30 μmol) [%] | inhibition at 100 µM ([2]; test compound 100 μmol) [%] | SOCE level (percentage of inhibition) ([1]; test compound 10 μmol) [%] | SOCE level (percentage of inhibition) ([1]; test compound 30 μmol) [%] | SOCE level (percentage of inhibition) ([1]; test compound 100 μmol) [%] | IICR level (percentage of inhibition) ([2]; test compound 10 μmol) [%] | IICR level (percentage of inhibition) ([2]; test compound 30 μmol) [%] | IICR level (percentage of inhibition) ([2]; test compound 100 μmol) [%]
CCCCN(CCO)CCC(=O)c1cccs1 [Example 247, 2-(N-butyl-2-hydroxyethyl)aminoethyl-2-thiophenylketone] | 0 | 0 | 0 | 10 | 0 | 0 | – | – | – | – | – | –
CN(CCC(=O)c1cccnc1)Cc1ccccc1 [Example 248, 2-(N-benzylmethyl)aminoethyl-3-pyridylketone] | 0 | 0 | 0 | 0 | 10 | 80 | – | – | – | – | – | –
O=C(CCN(CCO)CCO)c1ccncc1 [Example 249, 2-(N-bis-2-hydroxyethyl)aminoethyl-4-pyridylketone] | 0 | 0 | 20 | 0 | 60 | 80 | – | – | – | – | – | –
CCCCN(CCO)CCC(=O)c1ccccn1 [Example 250] | 0 | 0 | 0 | 0 | 10 | 20 | – | – | – | – | – | –
CN(CCO)CCC(=O)c1ccccn1 [Example 251, 2-(N-methyl-2-hydroxyethyl)aminoethyl-2-pyridylketone] | 0 | 0 | 0 | 0 | 0 | 0 | – | – | – | – | – | –
CCc1nccnc1C(=O)CCN(CCO)C(C)C [Example 252, 2-(N-isopropyl-2-hydroxyethyl)aminoethyl-3-ethyl-2-pyrazylketone] | – | – | – | – | – | – | 0 | 0 | 0 | 0 | 0 | 80
CCN(CCC(=O)c1cccs1)Cc1ccccc1 [Example 253, 2-(N-benzylethyl)aminoethyl-2-thiophenylketone] | 0 | 10 | 40 | 20 | 0 | 20 | – | – | – | – | – | –
CN(CCO)CCC(=O)c1ccsc1 [Example 254, 2-(N-2-hydroxyethylmethyl)aminoethyl-3-thiophenylketone] | 0 | 0 | 0 | 0 | 30 | 40 | – | – | – | – | – | –
CCCCN(CCO)CCC(=O)c1ccc(C)o1 [Example 255, 2-(N-2-hydroxyethylbutyl)aminoethyl-5-methyl-2-furylketone] | 0 | 0 | 0 | 0 | 30 | 50 | – | – | – | – | – | –
CC(C)(C)N(CCC(=O)c1nccs1)Cc1ccccc1 [Example 256, 2-(N-benzyl-t-butyl)aminoethyl-2-thiazolylketone] | 0 | 0 | 10 | 50 | 90 | 80 | – | – | – | – | – | –
Cc1nc(C)c(C(=O)CCN(CCO)C(C)C)s1 [Example 257, 2-(N-isopropyl-2-hydroxyethyl)aminoethyl-2,4-dimethyl-5-thiazolylketone] | 0 | 0 | 0 | 0 | 0 | 20 | – | – | – | – | – | –
CN(CCC(=O)c1nccs1)Cc1ccccc1 [Example 258, 2-(N-benzylmethyl)aminoethyl-2-thiazolylketone] | 0 | 0 | 0 | 20 | 0 | 20 | – | – | – | – | – | –
CN(CCO)CCC(=O)c1cccnc1 [Example 259, 2-(N-2-hydroxyethylmethyl)aminoethyl-3-pyridylketone] | 0 | 0 | 0 | 0 | 0 | 20 | – | – | – | – | – | –
CCc1nccnc1C(=O)CCN(CCO)CCO [Example 260, 2-(N-bis-hydroxyethyl)aminoethyl-3-ethyl-2-pyrazylketone] | 0 | 0 | 0 | 20 | 0 | 20 | – | – | – | – | – | –
CN(CCO)CCC(=O)c1ccncc1 [Example 262, 2-(N-2-hydroxyethylmethyl)aminoethyl-4-pyridylketone] | 0 | 0 | 0 | 0 | 0 | 70 | – | – | – | – | – | –
Cc1csc(C(=O)CCN(Cc2ccccc2)C(C)C)n1 [Example 263, 2-(N-benzylisopropyl)aminoethyl-4-methyl-2-thiazolylketone] | 0 | 0 | 30 | 0 | 0 | 70 | – | – | – | – | – | –
CCCCN(CCO)CCC(=O)c1nc(C)cs1 [Example 264, 2-(N-butyl-2-hydroxyethyl)aminoethyl-4-methyl-2-thiazolylketone] | 0 | 0 | 10 | 0 | 0 | 70 | – | – | – | – | – | –
Cc1csc(C(=O)CCN(C)Cc2ccccc2)n1 [Example 265, 2-(N-benzylmethyl)aminoethyl-4-methyl-2-thiazolylketone] | 10 | 10 | 10 | 0 | 0 | 70 | – | – | – | – | – | –
CC(C)N(CCC(=O)c1ccc(Cl)s1)Cc1ccccc1 [Example 266, 2-(N-benzylisopropyl)aminoethyl-5-chloro-2-thiophenylketone] | 0 | 20 | 40 | 0 | 0 | 70 | – | – | – | – | – | –
CC(C)N(CCO)CCC(=O)c1ccc(Cl)s1 [Example 267, 2-(N-2-hydroxyethylisopropyl)aminoethyl-5-chloro-2-thiophenylketone] | 0 | 0 | 0 | 0 | 0 | 70 | – | – | – | – | – | –
O=C(CCN(CCO)Cc1ccccc1)c1ccc(Cl)s1 [Example 268, 2-(N-benzyl-2-hydroxyethyl)aminoethyl-5-chloro-2-thiophenylketone] | 10 | 0 | 10 | 0 | 0 | 70 | – | – | – | – | – | –
O=C(CCNCCCO)c1cnccn1 [Example 270, 2-(N-hydroxypropyl)aminoethyl-2-pyrazylketone] | – | 10 | 30 | 20 | 0 | 10 | – | – | – | – | – | –
O=C(CCNCc1ccccc1)c1ccncc1 [Example 271, 2-(N-benzyl)aminoethyl-4-pyridylketone] | – | 0 | 10 | 10 | 0 | 40 | – | – | – | – | – | –
O=C(CCNC(c1ccccc1)C(O)c1ccccc1)c1ccco1 (centres unmarked) [Example 272, 2-(N-1,2-diphenyl-2-hydroxyethyl)aminoethyl-2-furylketone] | – | 20 | 40 | 40 | 20 | 20 | – | – | – | – | – | –
O=C(CCNCCN(CCO)CCC(=O)c1cnccn1)c1cnccn1 [Example 273, N,N-bis(2-pyrazoylethyl)-N-hydroxyethylethylenediamine] | – | 0 | 10 | 40 | 30 | 20 | – | – | – | – | – | –
O=C(CCNCCO)c1ccco1 [Example 275, 2-(N-2-hydroxyethyl)aminoethyl-2-furylketone] | – | 0 | 0 | 30 | 30 | 30 | – | – | – | – | – | –
O=C(CCNCCCCNCCC(=O)c1cnccn1)c1cnccn1 [Example 276, N,N-bis(2-pyrazoylethyl)tetramethylenediamine] | – | 0 | 0 | 0 | 0 | 20 | – | – | – | – | – | –
O=C(CCN(CCO)CCO)c1ccc(Cl)s1 [Example 277, 2-bis(N-2-hydroxyethyl)aminoethyl-5-chloro-2-thienylketone] | – | 0 | 0 | 0 | 0 | 20 | – | – | – | – | – | –
